Results from publication PMC5218480 (PLoS ONE, 2017).

Test system: MV-4-11 cells
Test: Gene expression microarray analysis (Affymetrix PrimeView) and GSEA
Type: cell-based, human
Parameters: RFU PODN (11730768_x_at) / Fold change /veh PODN (11730768_x_at) / RFU LINC00158 (11744669_a_at) / Fold change /veh LINC00158 (11744669_a_at) / RFU DUSP10 (11751237_a_at) / Fold change /veh DUSP10 (11751237_a_at) / RFU ID3 (11757404_x_at) / Fold change /veh ID3 (11757404_x_at) / RFU PLEKHG5 (11737974_s_at) / Fold change /veh PLEKHG5 (11737974_s_at) / RFU LRRC4B (11730491_at) / Fold change /veh LRRC4B (11730491_at) / RFU GIMAP4 (11747438_a_at) / Fold change /veh GIMAP4 (11747438_a_at) / RFU KRT8 (11758183_x_at) / Fold change /veh KRT8 (11758183_x_at) / RFU CNN1 (11734310_a_at) / Fold change /veh CNN1 (11734310_a_at) / RFU VPS37D (11726825_at) / Fold change /veh VPS37D (11726825_at) / RFU C10orf10 (11716522_x_at) / Fold change /veh C10orf10 (11716522_x_at) / RFU KIR2DL2 /// KIR2DL4 /// KIR2DL5A /// KIR2DL5B /// KIR2DS1 /// KIR2DS2 /// KIR2DS3 /// KIR2DS4 /// KIR3DL3 /// KIR3DL3 /// KIR3DS1 (11738374_at) / Fold change /veh KIR2DL2 /// KIR2DL4 /// KIR2DL5A /// KIR2DL5B /// KIR2DS1 /// KIR2DS2 /// KIR2DS3 /// KIR2DS4 /// KIR3DL3 /// KIR3DL3 /// KIR3DS1 (11738374_at) / RFU C1QL1 (11718748_at) / Fold change /veh C1QL1 (11718748_at) / RFU TMPRSS4 (11747572_a_at) / Fold change /veh TMPRSS4 (11747572_a_at) / RFU HAMP (11756126_x_at) / Fold change /veh HAMP (11756126_x_at) / RFU RNFT2 (11725882_a_at) / Fold change /veh RNFT2 (11725882_a_at) / RFU NR4A2 (11747474_a_at) / Fold change /veh NR4A2 (11747474_a_at) / RFU ABCC12 (11746883_a_at) / Fold change /veh ABCC12 (11746883_a_at) / RFU TMEM136 (11760407_x_at) / Fold change /veh TMEM136 (11760407_x_at) / RFU CLDN22 /// WWC2 (11732394_at) / Fold change /veh CLDN22 /// WWC2 (11732394_at) / RFU HLA-DPB1 (11760878_x_at) / Fold change /veh HLA-DPB1 (11760878_x_at) / RFU SPINT1 (11716480_a_at) / Fold change /veh SPINT1 (11716480_a_at) / RFU GAP43 (11754022_s_at) / Fold change /veh GAP43 (11754022_s_at) / RFU A4GNT (11735810_at) / Fold change /veh A4GNT (11735810_at) / RFU PRB3 (11715151_x_at) / Fold change /veh PRB3 (11715151_x_at) / RFU TUBB4B (11761932_at) / Fold change /veh TUBB4B (11761932_at) / RFU CAPN14 (11732068_a_at) / Fold change /veh CAPN14 (11732068_a_at) / RFU TMCC2 (11721928_a_at) / Fold change /veh TMCC2 (11721928_a_at) / RFU IRGQ (11745062_a_at) / Fold change /veh IRGQ (11745062_a_at) / RFU FAM174B (11720279_a_at) / Fold change /veh FAM174B (11720279_a_at) / RFU TMPRSS4 (11748680_a_at) / Fold change /veh TMPRSS4 (11748680_a_at) / RFU FAM212B (11763350_a_at) / Fold change /veh FAM212B (11763350_a_at) / RFU PLEKHG5 (11743358_a_at) / Fold change /veh PLEKHG5 (11743358_a_at) / RFU ZSCAN30 (11745921_a_at) / Fold change /veh ZSCAN30 (11745921_a_at) / RFU CMKLR1 (11741424_a_at) / Fold change /veh CMKLR1 (11741424_a_at) / RFU LOC101060620 /// MAPK8IP1 (11723275_at) / Fold change /veh LOC101060620 /// MAPK8IP1 (11723275_at) / RFU SPTSSB (11747773_x_at) / Fold change /veh SPTSSB (11747773_x_at) / RFU PRSS12 (11739890_at) / Fold change /veh PRSS12 (11739890_at) / RFU BIN1 (11741810_x_at) / Fold change /veh BIN1 (11741810_x_at) / RFU WNT11 (11732464_a_at) / Fold change /veh WNT11 (11732464_a_at) / RFU C10orf10 (11716521_a_at) / Fold change /veh C10orf10 (11716521_a_at) / RFU C5orf56 (11738089_at) / Fold change /veh C5orf56 (11738089_at) / RFU CYB561 (11721691_x_at) / Fold change /veh CYB561 (11721691_x_at) / RFU ANKRD19P (11752326_a_at) / Fold change /veh ANKRD19P (11752326_a_at) / RFU OR2T12 /// OR2T33 /// OR2T8 (11738714_s_at) / Fold change /veh OR2T12 /// OR2T33 /// OR2T8 (11738714_s_at) / RFU VCAN (11748164_a_at) / Fold change /veh VCAN (11748164_a_at) / RFU JSRP1 (11732532_at) / Fold change /veh JSRP1 (11732532_at) / RFU KRTAP10-11 (11738290_x_at) / Fold change /veh KRTAP10-11 (11738290_x_at) / RFU MYO3A (11730013_a_at) / Fold change /veh MYO3A (11730013_a_at) / RFU EBF3 (11725865_a_at) / Fold change /veh EBF3 (11725865_a_at) / RFU CAMK2N1 (11719241_x_at) / Fold change /veh CAMK2N1 (11719241_x_at) / RFU C5orf56 (11738088_a_at) / Fold change /veh C5orf56 (11738088_a_at) / RFU OLFML3 (11715873_a_at) / Fold change /veh OLFML3 (11715873_a_at) / RFU LOC100653217 /// NTM (11731650_a_at) / Fold change /veh LOC100653217 /// NTM (11731650_a_at) / RFU MAPK11 (11762145_a_at) / Fold change /veh MAPK11 (11762145_a_at) / RFU FIZ1 (11724087_x_at) / Fold change /veh FIZ1 (11724087_x_at) / RFU OASL (11726364_x_at) / Fold change /veh OASL (11726364_x_at) / RFU SOX15 (11748057_x_at) / Fold change /veh SOX15 (11748057_x_at) / RFU CD79A (11719716_a_at) / Fold change /veh CD79A (11719716_a_at) / RFU HIST1H1D (11736915_at) / Fold change /veh HIST1H1D (11736915_at) / RFU CASKIN2 (11723855_a_at) / Fold change /veh CASKIN2 (11723855_a_at) / RFU LOC730098 (11760151_x_at) / Fold change /veh LOC730098 (11760151_x_at) / RFU OR4N2 (11742367_at) / Fold change /veh OR4N2 (11742367_at) / RFU PRRT2 (11749266_a_at) / Fold change /veh PRRT2 (11749266_a_at) / RFU SNX32 (11753110_a_at) / Fold change /veh SNX32 (11753110_a_at) / RFU CDHR5 (11726645_a_at) / Fold change /veh CDHR5 (11726645_a_at) / RFU RCAN1 (11760418_a_at) / Fold change /veh RCAN1 (11760418_a_at) / RFU FAM167A (11723789_a_at) / Fold change /veh FAM167A (11723789_a_at) / RFU FAM26E (11764081_at) / Fold change /veh FAM26E (11764081_at) / RFU ISYNA1 (11749810_s_at) / Fold change /veh ISYNA1 (11749810_s_at) / RFU ACY1 (11761880_at) / Fold change /veh ACY1 (11761880_at) / RFU 11764098_at / Fold change /veh 11764098_at / RFU SAMD14 (11745864_x_at) / Fold change /veh SAMD14 (11745864_x_at) / RFU NPB (11741838_a_at) / Fold change /veh NPB (11741838_a_at) / RFU TMPRSS6 (11731388_a_at) / Fold change /veh TMPRSS6 (11731388_a_at) / RFU KRTAP10-2 (11738614_at) / Fold change /veh KRTAP10-2 (11738614_at) / RFU ARHGAP8 /// PRR5-ARHGAP8 (11727945_x_at) / Fold change /veh ARHGAP8 /// PRR5-ARHGAP8 (11727945_x_at) / RFU KRTAP5-7 /// NADSYN1 (11734609_at) / Fold change /veh KRTAP5-7 /// NADSYN1 (11734609_at) / RFU RASL12 (11751679_a_at) / Fold change /veh RASL12 (11751679_a_at) / RFU CDKN2B (11736163_a_at) / Fold change /veh CDKN2B (11736163_a_at) / RFU PRF1 (11729649_at) / Fold change /veh PRF1 (11729649_at) / RFU, ZNF638 /// ZNF638-IT1 / Fold change vs veh, ZNF638 /// ZNF638-IT1 / RFU, PANK3 / Fold change vs veh, PANK3 / RFU, SH3YL1 / Fold change vs veh, SH3YL1 / RFU, ZEB2 / Fold change vs veh, ZEB2 / RFU, NRIP1 / Fold change vs veh, NRIP1 / RFU, PTTG1IP / Fold change vs veh, PTTG1IP / RFU, CAPN2 / Fold change vs veh, CAPN2 / RFU, MED14 / Fold change vs veh, MED14 / RFU, SNORA58 / Fold change vs veh, SNORA58 / RFU, C1orf63 / Fold change vs veh, C1orf63 / RFU, LRRFIP1 / Fold change vs veh, LRRFIP1 / RFU, NDUFAF7 / Fold change vs veh, NDUFAF7 / RFU, SLC12A2 / Fold change vs veh, SLC12A2 / RFU, IBTK / Fold change vs veh, IBTK / RFU, ESF1 / Fold change vs veh, ESF1 / Fold change vs veh, TMEM50B / RFU, TAOK1 / Fold change vs veh, TAOK1 / RFU, ACBD3 / Fold change vs veh, ACBD3 / RFU, TMA16 / Fold change vs veh, TMA16 / RFU, RWDD3 / Fold change vs veh, RWDD3 / RFU, BCAT1 / Fold change vs veh, BCAT1 / RFU, EDEM3 / Fold change vs veh, EDEM3 / RFU, TMEM33 / Fold change vs veh, TMEM33 / RFU, WDR75 / Fold change vs veh, WDR75 / RFU, AHCTF1 / Fold change vs veh, AHCTF1 / RFU, TFRC / Fold change vs veh, TFRC / RFU, ZDHHC17 / Fold change vs veh, ZDHHC17 / RFU, NOM1 / Fold change vs veh, NOM1 / RFU, ARL8B / Fold change vs veh, ARL8B / RFU, ZBTB11 / Fold change vs veh, ZBTB11 / RFU, TAMM41 / Fold change vs veh, TAMM41 / RFU, KIAA1704 /// LOC100996395 / Fold change vs veh, KIAA1704 /// LOC100996395 / RFU, ING1 / Fold change vs veh, ING1 / RFU, TRMT61B / Fold change vs veh, TRMT61B / RFU, FUBP3 / Fold change vs veh, FUBP3 / RFU, TP53 / Fold change vs veh, TP53 / RFU, TNKS2 / Fold change vs veh, TNKS2 / RFU, ZFP14 / Fold change vs veh, ZFP14 / RFU, ACTR2 / Fold change vs veh, ACTR2 / RFU, PPP3R1 / Fold change vs veh, PPP3R1 / RFU, PIK3R1 / Fold change vs veh, PIK3R1 / RFU, HNRNPA1 / Fold change vs veh, HNRNPA1 / RFU, RNF170 / Fold change vs veh, RNF170 / RFU, ZNF28 / Fold change vs veh, ZNF28 / RFU, RNGTT / Fold change vs veh, RNGTT / RFU, OGT / Fold change vs veh, OGT / RFU, BRD1 / Fold change vs veh, BRD1 / RFU, MARS / Fold change vs veh, MARS / RFU, ZNF655 / Fold change vs veh, ZNF655 / RFU, FAHD1 / Fold change vs veh, FAHD1 / RFU, BDP1 / Fold change vs veh, BDP1 / RFU, LRRCC1 / Fold change vs veh, LRRCC1 / RFU, ARID1A / Fold change vs veh, ARID1A / RFU, ZNF146 / Fold change vs veh, ZNF146 / RFU, ZNF330 / Fold change vs veh, ZNF330 / RFU, GPN3 / Fold change vs veh, GPN3 / RFU, C9orf123 / Fold change vs veh, C9orf123 / RFU, N4BP2L2 / Fold change vs veh, N4BP2L2 / RFU, ARFIP1 / Fold change vs veh, ARFIP1 / RFU, FAM179B / Fold change vs veh, FAM179B / RFU, BCL10 / Fold change vs veh, BCL10 / RFU, UHRF1BP1L / Fold change vs veh, UHRF1BP1L / RFU, BET1 / Fold change vs veh, BET1 / RFU, CNOT2 / Fold change vs veh, CNOT2 / RFU, ZNF268 / Fold change vs veh, ZNF268 / Fold change vs veh, ZNF507 / RFU, DGCR2 / Fold change vs veh, DGCR2 / RFU, WDSUB1 / Fold change vs veh, WDSUB1 / Fold change vs veh, HSP90B1 /// MIR3652 / RFU, ADSS / Fold change vs veh, ADSS / RFU, GK / Fold change vs veh, GK / RFU, ZNF148 / Fold change vs veh, ZNF148 / RFU, TAF9 / Fold change vs veh, TAF9 / RFU, SLC1A5 / Fold change vs veh, SLC1A5 / RFU, SLMO2 / Fold change vs veh, SLMO2 / RFU, ABCC4 / Fold change vs veh, ABCC4 / RFU, LOC101060439 /// RAP1B / Fold change vs veh, LOC101060439 /// RAP1B / RFU, RFX7 / Fold change vs veh, RFX7 / RFU, GTPBP10 / Fold change vs veh, GTPBP10 / RFU, CNEP1R1 / Fold change vs veh, CNEP1R1 / RFU, BIVM-ERCC5 /// ERCC5 / Fold change vs veh, BIVM-ERCC5 /// ERCC5 / RFU, ILF3 / Fold change vs veh, ILF3 / RFU 11762660_at / Fold change /veh 11762660_at / RFU VCAN (11757783_s_at) / Fold change /veh VCAN (11757783_s_at) / RFU DDX43 (11728927_at) / Fold change /veh DDX43 (11728927_at) / RFU KRT8 (11758188_x_at) / Fold change /veh KRT8 (11758188_x_at) / RFU NKD1 (11759106_at) / Fold change /veh NKD1 (11759106_at) / RFU SRD5A1 (11742802_a_at) / Fold change /veh SRD5A1 (11742802_a_at) / RFU TPSAB1 /// TPSB2 (11721975_s_at) / Fold change /veh TPSAB1 /// TPSB2 (11721975_s_at) / RFU GSTM3 (11746129_a_at) / Fold change /veh GSTM3 (11746129_a_at) / RFU IL23R (11737362_x_at) / Fold change /veh IL23R (11737362_x_at) / RFU TMEM51 (11727254_a_at) / Fold change /veh TMEM51 (11727254_a_at) / RFU PIWIL2 (11732686_x_at) / Fold change /veh PIWIL2 (11732686_x_at) / RFU ORM1 (11744905_x_at) / Fold change /veh ORM1 (11744905_x_at) / RFU CCDC152 (11743942_at) / Fold change /veh CCDC152 (11743942_at) / RFU ECM1 (11717891_a_at) / Fold change /veh ECM1 (11717891_a_at) / RFU IL23R (11748794_a_at) / Fold change /veh IL23R (11748794_a_at) / RFU TNFAIP8L3 (11732012_x_at) / Fold change /veh TNFAIP8L3 (11732012_x_at) / RFU MBOAT4 (11741988_at) / Fold change /veh MBOAT4 (11741988_at) / RFU 11764193_at / Fold change /veh 11764193_at / RFU TMEM53 (11763286_at) / Fold change /veh TMEM53 (11763286_at) / RFU MAGEB2 (11727129_at) / Fold change /veh MAGEB2 (11727129_at) / RFU TMEM200A (11744735_a_at) / Fold change /veh TMEM200A (11744735_a_at) / RFU CCDC152 (11751479_a_at) / Fold change /veh CCDC152 (11751479_a_at) / RFU FAM211A (11726209_a_at) / Fold change /veh FAM211A (11726209_a_at) / RFU RGS16 (11746705_a_at) / Fold change /veh RGS16 (11746705_a_at) / RFU VCAN (11755009_s_at) / Fold change /veh VCAN (11755009_s_at) / RFU RHOB (11743442_s_at) / Fold change /veh RHOB (11743442_s_at) / RFU RGS16 (11720943_a_at) / Fold change /veh RGS16 (11720943_a_at) / RFU RGS16 (11720944_at) / Fold change /veh RGS16 (11720944_at) / RFU, VPS4B / Fold change vs veh, VPS4B / RFU, CREB1 / Fold change vs veh, CREB1 / RFU, DNAJC13 / Fold change vs veh, DNAJC13 / RFU, GNAQ / Fold change vs veh, GNAQ / RFU, CDK5R1 / Fold change vs veh, CDK5R1 / RFU, ZRANB3 / Fold change vs veh, ZRANB3 / RFU, CUL4A / Fold change vs veh, CUL4A / RFU, CCNY / Fold change vs veh, CCNY / RFU, UFL1 / Fold change vs veh, UFL1 / RFU, COG3 / Fold change vs veh, COG3 / RFU, DIAPH2 / Fold change vs veh, DIAPH2 / RFU, SKA2 / Fold change vs veh, SKA2 / RFU, AFF3 / Fold change vs veh, AFF3 / RFU, LMF1 / Fold change vs veh, LMF1 / RFU, IPO11 / Fold change vs veh, IPO11 / RFU, DFFB / Fold change vs veh, DFFB / RFU, FOXP1 / Fold change vs veh, FOXP1 / RFU, CARD8 / Fold change vs veh, CARD8 / RFU, STRN3 / Fold change vs veh, STRN3 / RFU, ADK / Fold change vs veh, ADK / RFU, RASSF2 / Fold change vs veh, RASSF2 / RFU, WIPF1 / Fold change vs veh, WIPF1 / RFU, LARP1B / Fold change vs veh, LARP1B / RFU, RASA1 / Fold change vs veh, RASA1 / RFU, RB1 / Fold change vs veh, RB1 / RFU, PPFIA1 / Fold change vs veh, PPFIA1 / RFU, MAT2A / Fold change vs veh, MAT2A / RFU, CCT5 / Fold change vs veh, CCT5 / RFU, WDR92 / Fold change vs veh, WDR92 / RFU, CUX1 / Fold change vs veh, CUX1 / RFU, TTC7A / Fold change vs veh, TTC7A / RFU, TMEM135 / Fold change vs veh, TMEM135 / RFU, DEPTOR / Fold change vs veh, DEPTOR / RFU, CPM / Fold change vs veh, CPM / RFU, DNAJB6 / Fold change vs veh, DNAJB6 / RFU, CACNA2D3 / Fold change vs veh, CACNA2D3 / RFU, DTX4 / Fold change vs veh, DTX4 / RFU, TFCP2 / Fold change vs veh, TFCP2 / RFU, GMCL1 /// GMCL1P1 / Fold change vs veh, GMCL1 /// GMCL1P1 / RFU, AEBP2 / Fold change vs veh, AEBP2 / RFU, SNHG1 /// SNORD22 /// SNORD25 /// SNORD26 /// SNORD27 /// SNORD28 /// SNORD29 /// SNORD31 / Fold change vs veh, SNHG1 /// SNORD22 /// SNORD25 /// SNORD26 /// SNORD27 /// SNORD28 /// SNORD29 /// SNORD31 / Fold change (Aza/veh), C12orf56 (ProbeSet 11735607_a_at) / Fold change (ACY-1035/veh), C12orf56 (ProbeSet 11735607_a_at) / Fold change (Aza/veh), FGFR1OP (ProbeSet 11751329_s_at) / Fold change (ACY-1035/veh), FGFR1OP (ProbeSet 11751329_s_at) / Fold change (Aza/veh), VPS36 (ProbeSet 11739960_a_at) / Fold change (ACY-1035/veh), VPS36 (ProbeSet 11739960_a_at) / RFU SYPL1 (11715823_x_at) / Fold change /veh SYPL1 (11715823_x_at) / RFU IGFBP7 (11715501_s_at) / Fold change /veh IGFBP7 (11715501_s_at) / RFU REEP3 (11722064_at) / Fold change /veh REEP3 (11722064_at) / RFU IGLL1 (11728026_x_at) / Fold change /veh IGLL1 (11728026_x_at): dose or concentration left out as unconfirmed
Details: ProbeSet 11725885_a_at; LIST B

SMILES: Nc1ncn([C@@H]2O[C@H](CO)[C@@H](O)[C@H]2O)c(=O)n1 [azacitidine]
- RFU, CNEP1R1: 65.19 RFU
